From patent US20220356174A1, “PYRIDIN-2-ONE COMPOUNDS USEFUL AS SMARCA2 ANTAGONISTS” (Epizyme, Inc., priority 2018, published 2022)
Where two headings read alike, the source gives them in different places. One block for each compound: values may come before it.

Columns and labels:
[1] = target: FL-SMARCA4 (Homo sapiens, UniProt P51532); assay: SMARCA4 ATPase activity assay (ADP-Glo, chicken mononucleosome substrate)
[2] = target: T1, FL-SMARCA2 (full-length human SMARCA2 isoform 1) (Homo sapiens, UniProt P51531); assay: SMARCA2 ATPase activity assay (ADP-Glo, chicken mononucleosome substrate); type: biochemical; settings: ATP 250 uM
T1 construct: FLAG tag (YKDDDDK) (C); made in house; host or cells: Sf21 insect cells (baculovirus, pFastBacI)
Description: Molecular Biology: Full-length human SMARCA2 isoform 1 (P51531) transcript clone was amplified from a cDNA library incorporating an N-terminal HIS tag ([…]) fused directly to Ser2 of SMARCA2 and a C-FLAG tag (YKDDDDK) fused directly to Glu1590 of SMARCA2. The amplified gene was subcloned into pFastBacI (Life Technologies).
Protein Expression: Recombinant baculovirus were generated and protein over-expression was accomplished by infecting exponentially growing Sf21 insect cell culture at 1.24×10^6 cell/ml with an MOI of 0.1. Infections were carried out for 76 hours, harvested by centrifugation, and stored at −80° C. for purification.
Expressed full-length SMARCA2 was purified from cell paste by FLAG affinity chromatography followed by anion exchange chromatography. The protein was dialyzed into a storage buffer containing 25 mM HEPES, 300 mM KCl, 10% Glycerol, pH 7.9, 1 mM TCEP and 0.01% Tween-20. The purity of the protein was measured as 74% using micro-capillary based gel electrophoresis.

[3] = FL-SMARCA4 IC50, Table 3a.2, SMARCA4 5 nM, ATP 250 uM, mononucleosome 10 nM
[4] = Table 3a.1, SMARCA2 5 nM, mononucleosome 10 nM
[5] = FL-SMARCA4 IC50, Table 3.2, ATPase assay, enzyme 5 nM, ATP 250 uM, chicken mononucleosome 10 nM, 30 min preincubation
[6] = Table 3.1, ATPase assay, enzyme 5 nM, chicken mononucleosome 10 nM, 30 min preincubation
[7] = FL-SMARCA4 IC>50, Table 3c.2, ATPase assay, enzyme 5 nM, ATP 250 uM, chicken mononucleosome 10 nM, 30 min preincubation
[8] = Table 3c.1, ATPase assay, enzyme 5 nM, chicken mononucleosome 10 nM, 30 min preincubation
[9] = Table 3d.1, ATPase assay, enzyme 5 nM, chicken mononucleosome 10 nM, 30 min preincubation, read-out: FL-SMARCA2 IC>50

Sequence of FL-SMARCA4 (P51532 whole entry, canonical isoform): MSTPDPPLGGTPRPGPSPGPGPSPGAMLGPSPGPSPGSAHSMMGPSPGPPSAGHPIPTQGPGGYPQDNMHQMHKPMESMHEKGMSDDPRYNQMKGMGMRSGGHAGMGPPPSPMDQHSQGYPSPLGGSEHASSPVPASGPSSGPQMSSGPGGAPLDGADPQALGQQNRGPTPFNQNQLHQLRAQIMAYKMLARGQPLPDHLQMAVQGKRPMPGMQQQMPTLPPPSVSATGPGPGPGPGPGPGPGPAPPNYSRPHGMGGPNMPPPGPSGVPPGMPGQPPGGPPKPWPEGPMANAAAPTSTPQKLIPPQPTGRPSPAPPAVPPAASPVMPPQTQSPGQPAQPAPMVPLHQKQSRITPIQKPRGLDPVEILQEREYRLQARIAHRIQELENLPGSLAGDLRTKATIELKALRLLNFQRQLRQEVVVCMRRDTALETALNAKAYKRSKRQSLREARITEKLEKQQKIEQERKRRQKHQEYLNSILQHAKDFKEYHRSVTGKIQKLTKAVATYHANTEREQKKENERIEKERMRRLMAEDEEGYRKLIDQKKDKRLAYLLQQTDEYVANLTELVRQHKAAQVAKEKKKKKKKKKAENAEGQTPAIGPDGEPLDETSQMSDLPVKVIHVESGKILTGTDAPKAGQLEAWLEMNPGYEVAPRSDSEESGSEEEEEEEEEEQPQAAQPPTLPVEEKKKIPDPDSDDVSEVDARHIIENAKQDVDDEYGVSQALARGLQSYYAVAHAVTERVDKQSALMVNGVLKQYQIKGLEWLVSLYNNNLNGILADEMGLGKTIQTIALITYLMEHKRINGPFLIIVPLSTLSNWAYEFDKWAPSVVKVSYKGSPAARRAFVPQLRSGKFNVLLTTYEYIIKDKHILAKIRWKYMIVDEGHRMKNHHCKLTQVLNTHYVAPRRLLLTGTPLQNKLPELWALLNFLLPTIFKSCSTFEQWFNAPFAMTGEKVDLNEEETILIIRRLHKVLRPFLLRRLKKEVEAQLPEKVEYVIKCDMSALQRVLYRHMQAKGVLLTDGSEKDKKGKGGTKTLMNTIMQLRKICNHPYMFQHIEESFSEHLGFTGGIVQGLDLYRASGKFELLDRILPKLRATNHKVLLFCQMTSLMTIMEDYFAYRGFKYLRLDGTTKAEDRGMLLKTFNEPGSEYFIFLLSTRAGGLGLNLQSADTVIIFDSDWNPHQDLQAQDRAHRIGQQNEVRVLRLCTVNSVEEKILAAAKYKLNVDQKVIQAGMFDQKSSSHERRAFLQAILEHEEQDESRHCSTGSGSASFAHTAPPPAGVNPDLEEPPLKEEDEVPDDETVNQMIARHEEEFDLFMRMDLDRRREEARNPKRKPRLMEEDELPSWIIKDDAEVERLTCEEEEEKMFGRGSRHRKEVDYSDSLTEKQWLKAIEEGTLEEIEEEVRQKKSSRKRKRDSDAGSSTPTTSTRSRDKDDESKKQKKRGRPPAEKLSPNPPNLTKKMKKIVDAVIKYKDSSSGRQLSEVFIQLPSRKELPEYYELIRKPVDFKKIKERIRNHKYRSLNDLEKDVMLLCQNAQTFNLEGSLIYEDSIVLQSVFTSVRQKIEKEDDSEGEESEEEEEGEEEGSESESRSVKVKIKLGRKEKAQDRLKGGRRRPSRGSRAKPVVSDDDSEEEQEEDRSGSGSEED
T1 sequence (P51531 with tags, fused parts or gaps): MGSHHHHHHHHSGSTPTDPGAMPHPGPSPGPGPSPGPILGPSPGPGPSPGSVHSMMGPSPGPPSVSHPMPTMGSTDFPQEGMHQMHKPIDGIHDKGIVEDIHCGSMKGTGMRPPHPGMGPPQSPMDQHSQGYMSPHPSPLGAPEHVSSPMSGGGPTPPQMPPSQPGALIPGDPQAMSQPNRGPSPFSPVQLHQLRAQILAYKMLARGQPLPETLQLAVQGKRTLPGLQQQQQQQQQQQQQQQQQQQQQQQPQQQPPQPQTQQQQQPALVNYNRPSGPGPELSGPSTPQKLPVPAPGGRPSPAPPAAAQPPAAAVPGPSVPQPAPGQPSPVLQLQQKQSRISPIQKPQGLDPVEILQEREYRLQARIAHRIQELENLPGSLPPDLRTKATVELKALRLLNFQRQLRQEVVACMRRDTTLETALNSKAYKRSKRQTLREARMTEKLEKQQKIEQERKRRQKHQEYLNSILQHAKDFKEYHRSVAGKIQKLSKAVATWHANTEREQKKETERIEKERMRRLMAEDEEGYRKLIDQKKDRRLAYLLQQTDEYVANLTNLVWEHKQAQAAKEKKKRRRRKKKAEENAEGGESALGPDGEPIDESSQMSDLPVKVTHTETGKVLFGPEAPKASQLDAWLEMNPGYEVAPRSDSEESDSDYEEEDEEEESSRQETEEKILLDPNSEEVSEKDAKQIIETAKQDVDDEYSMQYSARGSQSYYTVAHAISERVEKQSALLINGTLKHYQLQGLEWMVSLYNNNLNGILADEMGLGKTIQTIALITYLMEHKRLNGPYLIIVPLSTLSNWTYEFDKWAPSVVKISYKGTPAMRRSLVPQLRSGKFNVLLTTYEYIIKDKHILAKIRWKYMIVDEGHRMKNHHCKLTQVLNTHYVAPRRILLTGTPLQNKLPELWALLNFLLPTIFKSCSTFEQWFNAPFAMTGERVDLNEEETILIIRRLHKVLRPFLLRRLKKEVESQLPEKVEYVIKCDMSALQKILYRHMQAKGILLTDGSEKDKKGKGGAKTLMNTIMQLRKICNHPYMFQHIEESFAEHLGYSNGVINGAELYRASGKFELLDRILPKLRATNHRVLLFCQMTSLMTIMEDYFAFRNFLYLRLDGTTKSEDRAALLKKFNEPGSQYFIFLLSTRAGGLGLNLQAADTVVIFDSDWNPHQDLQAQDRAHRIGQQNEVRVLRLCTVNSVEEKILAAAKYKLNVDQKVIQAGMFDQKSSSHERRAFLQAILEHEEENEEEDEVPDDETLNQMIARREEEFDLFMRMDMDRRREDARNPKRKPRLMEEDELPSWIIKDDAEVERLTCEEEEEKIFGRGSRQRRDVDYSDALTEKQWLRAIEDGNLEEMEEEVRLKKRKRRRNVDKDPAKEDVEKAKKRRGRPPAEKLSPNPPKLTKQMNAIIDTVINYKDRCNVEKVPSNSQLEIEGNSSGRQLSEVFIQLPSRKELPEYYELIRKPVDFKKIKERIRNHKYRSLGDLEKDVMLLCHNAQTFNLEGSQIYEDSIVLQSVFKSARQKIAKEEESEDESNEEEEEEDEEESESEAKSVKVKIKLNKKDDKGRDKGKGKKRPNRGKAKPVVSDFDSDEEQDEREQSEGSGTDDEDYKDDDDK

IC50 [1, 5]: > 50 µM | IC50 [2, 6]: > 50 µM
Compound: O=C(Nc1cc(F)c(=O)n(CCF)c1)c1cnc(Cl)o1 [Compound 253]

IC50 [1, 5]: > 50 µM | IC50 [2, 6]: 36.7 µM
Compound: CCn1cc(NC(=O)c2cc(Cl)ns2)ccc1=O [Compound 107]

IC50 [1, 7]: 27.6 µM | IC50 [2, 8]: 6.81 µM
Compound: O=C(Nc1cc(F)c(=O)n(CC(F)(F)CO)c1)c1cc(Cl)c(Cl)s1 [Compound 100c]

IC50 [1, 5]: > 50 µM | IC50 [2, 6]: > 50 µM
Compound: CCCn1c(C(=O)Nc2ccc(=O)n(CC)c2)cc(Cl)c1Cl [Compound 59]

IC50 [1, 5]: 0.616 µM | IC50 [2, 6]: 0.158 µM
Compound: N#Cc1cc(C(=O)Nc2ccc(=O)n(CCF)c2)sc1Cl [Compound 187]

IC50 [1, 5]: > 50 µM | IC50 [2, 6]: > 50 µM
Compound: CCn1cc(NC(=O)c2ccc(CN(C)C)s2)ccc1=O [Compound 88]

IC50 [1, 5]: > 50 µM | IC50 [2, 6]: > 50 µM
Compound: Cn1cc(C(=O)Nc2cc(F)c(=O)n(CCF)c2)sc1=O [Compound 227]

IC50 [1, 5]: > 50 µM | IC50 [2, 6]: 16.7 µM
Compound: CS(=O)(=O)c1sc(C(=O)Nc2cc(F)c(=O)n(CCF)c2)cc1Cl [Compound 301]

IC50 ([1]; FL-SMARCA4 IC50): > 50 µM | IC50 [2, 9]: > 50 µM
Compound: CCn1c(F)c(NC(=O)c2cc(Cl)c(Cl)s2)ccc1=O [Compound 29d]

IC50 [1, 5]: 11.7 µM | IC50 [2, 6]: 2.52 µM
Compound: CCn1cc(NC(=O)c2cnc(Cl)s2)ccc1=O [Compound 69]

IC50 [1, 5]: > 50 µM | IC50 [2, 6]: > 50 µM
Compound: CCn1cc(NC(=O)c2cc(Cl)c(Cl)n2C2CC2)ccc1=O [Compound 62]

IC50 [1, 5]: 21.4 µM | IC50 [2, 6]: 6.34 µM
Compound: O=C(Nc1cc(NCCN2CCOCC2)c(=O)n(CCF)c1)c1cc(Cl)c(Cl)s1 [Compound 256]

IC50 [1, 3]: > 50 µM | IC50 [2, 4]: 42.5 µM
Compound: O=C(Nc1ccc(=O)n(CC(F)(F)F)c1)c1nc2cc(F)c(Cl)cc2s1 [Compound 44a]

The next lines start with the compound.

Compound: CCn1cc(NC(=O)c2ccc(=O)n(-c3ccccc3F)n2)ccc1=O [Compound 1a]
IC50 [1, 3]: > 50 µM | IC50 [2, 4]: > 50 µM

Compound: O=C(Nc1cc(F)c(=O)n(CC(F)F)c1)c1cc(C#Cc2ccncc2)c(F)s1 [Compound 106c]
IC50 [1, 7]: 0.0533 µM | IC50 [2, 8]: 0.028 µM

Compound: CCn1cc(NC(=O)c2cc(Cl)c(Cl)s2)cc(OCCOC)c1=O [Compound 118]
IC50 [1, 5]: > 50 µM | IC50 [2, 6]: > 50 µM

Compound: CCn1cc(NC(=O)n2cc3ccccc3n2)ccc1=O [Compound 39a]
IC50 [1, 3]: > 50 µM | IC50 [2, 4]: > 50 µM

Compound: CN(C)C(=O)c1ccc(C(=O)Nc2cc(F)c(=O)n(CCF)c2)cc1 [Compound 21b]
IC50 ([1]; FL-SMARCA4 IC50, Table 3b.2, SMARCA4 5 nM, ATP 250 uM, mononucleosome 10 nM): > 50 µM | IC50 ([2]; Table 3b.1, SMARCA2 5 nM, mononucleosome 10 nM): > 50 µM

Compound: COCCn1cc(NC(=O)c2nc(C)n(-c3ccccc3Cl)n2)ccc1=O [Compound 11]
IC50 [1, 5]: > 50 µM | IC50 [2, 6]: > 50 µM

Compound: O=C(Nc1ccc(=O)n(Cc2ccccc2Cl)c1)C1COCCN1 (centres unmarked) [Compound 6a]
IC50 [1, 3]: > 50 µM | IC50 [2, 4]: > 50 µM

Compound: CCn1cc(NC(=O)c2cnc3ncccn23)ccc1=O [Compound 23a]
IC50 [1, 3]: > 50 µM | IC50 [2, 4]: > 50 µM

Compound: O=C(Nc1cc(-c2ncco2)c(=O)n(CC(F)F)c1)c1sc(C(F)(F)F)cc1Cl [Compound 30c]
IC50 [1, 7]: > 50 µM | IC50 [2, 8]: > 50 µM

Compound: CCn1cc(NC(=O)c2ccc(I)n2C)ccc1=O [Compound 48]
IC50 [1, 5]: > 50 µM | IC50 [2, 6]: 14.1 µM

Compound: Cn1nccc1-c1cc(NC(=O)c2cc(Cl)c(C(F)(F)F)s2)cn(CC(F)F)c1=O [Compound 13c]
IC50 [1, 7]: > 50 µM | IC50 [2, 8]: > 50 µM

Compound: O=C(Nc1cc(F)c(=O)n(CC(F)F)c1)c1cc(F)c(F)s1 [Compound 109c]
IC50 [1, 7]: 0.159 µM | IC50 [2, 8]: 0.0625 µM

Compound: CCn1cc(NC(=O)c2cc(Cl)c(Cl)n2C)cc(F)c1=O [Compound 164]
IC50 [1, 5]: 1.34 µM | IC50 [2, 6]: 0.311 µM

Compound: COc1ccc2nc(C(=O)Nc3cc(F)c(=O)n(CCF)c3)sc2c1 [Compound 62a]
IC50 [1, 3]: 48.2 µM | IC50 [2, 4]: 44 µM

Compound: Cc1cc(=O)n(C)cc1NC(=O)C1CCCN(Cc2ccccc2)C1 (centres unmarked) [Compound 4d]
IC50 ([1]; FL-SMARCA4 IC50): > 50 µM | IC50 [2, 9]: 32 µM

Compound: CCn1cc(NC(=O)Nc2ccccn2)ccc1=O [Compound 17d]
IC50 ([1]; FL-SMARCA4 IC50): > 50 µM | IC50 [2, 9]: > 50 µM

Compound: COc1c(C(=O)Nc2cc(F)c(=O)n(CC(F)F)c2)sc(Cl)c1Cl [Compound 46d]
IC50 ([1]; FL-SMARCA4 IC50): > 50 µM | IC50 [2, 9]: > 50 µM

Compound: O=C(Nc1cc(F)c(=O)n(CC(F)F)c1)c1cc(Cl)on1 [Compound 44d]
IC50 ([1]; FL-SMARCA4 IC50): > 50 µM | IC50 [2, 9]: 29.5 µM
